Measured values published in PMC6474360 (Biochemistry, 2018).

Tests used:
Assay type in all cases: binding
[1] = molecular target: sperm whale myoglobin (ferrous Mb^II), V68A/I107Y mutant (Physeter macrocephalus, UniProt P02185, D123N/I108Y/V69A); assay: UV-vis titration
[2] = molecular target: sperm whale myoglobin (ferric Mb^III), H64A mutant (Physeter macrocephalus, UniProt P02185, D123N/H65A); assay: X-ray crystal structure
[3] = molecular target: sperm whale myoglobin (ferrous Mb^II), H64Q mutant (Physeter macrocephalus, UniProt P02185, D123N/H65Q); assay: UV-vis titration
[4] = molecular target: sperm whale myoglobin (ferric Mb^III), wild-type (Physeter macrocephalus, UniProt P02185, D123N); assay: UV-vis titration
Chain of sperm whale myoglobin (ferric Mb^III), wild-type (P02185 whole entry D123N): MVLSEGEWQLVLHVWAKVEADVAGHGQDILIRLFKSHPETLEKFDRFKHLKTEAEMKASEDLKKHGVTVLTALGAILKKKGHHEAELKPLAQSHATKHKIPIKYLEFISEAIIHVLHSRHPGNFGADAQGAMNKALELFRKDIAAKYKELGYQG

Chain of sperm whale myoglobin (ferric Mb^III), H64A mutant (P02185 whole entry H65A/D123N): as the sequence (P02185 whole entry D123N) above, with H65A counted along it
Chain of sperm whale myoglobin (ferrous Mb^II), V68A/I107Y mutant (P02185 whole entry V69A/I108Y/D123N): as the sequence (P02185 whole entry D123N) above, with V69A, I108Y counted along it
Chain of sperm whale myoglobin (ferrous Mb^II), H64Q mutant (P02185 whole entry H65Q/D123N): as the sequence (P02185 whole entry D123N) above, with H65Q counted along it

For O=NO [nitrite], the Kd [1] was 19.4 ± 0.6 mM, the Kd [2] was > 20 mM and the Kd [3] was 1.45 ± 0.3 mM. For the same compound, the Kd [4] was 12.2 ± 2.2 mM.
